# Experimental data taken from ChEMBL document CHEMBL5537115, “New broad-spectrum and potent antibacterial agents with dual-targeting mechanism: Promoting FtsZ polymerization and disrupting bacterial membranes” (Eur J Med Chem, 2024).
# Active and inactive are the calls of the source. No cut-off for these calls is given here.
# Experiments:
# Staphylococcus aureus [1] = test: Effect on proton gradient of cytoplasmic membrane in Staphylococcus aureus ATCC25923 at 1 ug/ml measured after 20 mins by diSC35 dye based analysis; format: functional, organism-based; settings: Cytoplasm membrane, dose 1.0 µg/ml
# Staphylococcus aureus [2] = test: Antibacterial activity against Staphylococcus aureus clinical isolate assessed as bacterial growth inhibition incubated for 20 hrs by CLSI based broth microdilution method; format: functional
# Bacillus subtilis [3] = test: Antibacterial activity against penicillin-susceptible Bacillus subtilis ATCC9372 assessed as bacterial growth inhibition incubated for 20 hrs by CLSI based broth microdilution method; format: functional
# Escherichia coli [4] = test: Antibacterial activity against penicillin-susceptible Escherichia coli ATCC25922 assessed as bacterial growth inhibition incubated for 20 hrs by CLSI based broth microdilution method; format: functional
# [5] = target: T1, Cell division protein FtsZ (Bacillus subtilis) (UniProt A5Z1V5); test: Induction of FtsZ polymerization in Bacillus subtilis assessed as bundling of FtsZ protofilaments at 10 ug/ml preincubated for 15 mins followed by GTP addition measured after 10 mins by TEM analysis; settings: dose 10.0 µg/ml, time 25.0 min
# T1 sequence (whole entry): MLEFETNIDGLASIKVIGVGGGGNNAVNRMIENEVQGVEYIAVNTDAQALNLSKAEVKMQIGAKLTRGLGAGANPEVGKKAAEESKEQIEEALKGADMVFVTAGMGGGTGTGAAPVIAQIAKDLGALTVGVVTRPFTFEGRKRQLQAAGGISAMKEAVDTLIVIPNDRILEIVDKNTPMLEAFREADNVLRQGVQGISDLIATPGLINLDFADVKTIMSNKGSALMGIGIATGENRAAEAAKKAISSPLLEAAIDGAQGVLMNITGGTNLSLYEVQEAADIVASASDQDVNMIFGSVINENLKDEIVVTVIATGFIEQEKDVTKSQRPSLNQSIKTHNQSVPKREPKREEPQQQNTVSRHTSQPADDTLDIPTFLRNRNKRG
# Staphylococcus aureus [6] = test: Selectivity ratio of MBC for Staphylococcus aureus clinical isolate to MIC for Staphylococcus aureus clinical isolate; format: functional
# Bacillus subtilis [7] = test: Antibacterial activity against penicillin-susceptible Bacillus subtilis ATCC9372 incubated for 18 to 24 hrs; format: functional; settings: time 18-24 hrs
# Staphylococcus aureus [8] = test: Disruption of inner membrane in Staphylococcus aureus ATCC25923 measured after 12 mins by PI staining based analysis; format: functional, organism-based
# Staphylococcus aureus [9] = test: Antibacterial activity against methicillin-resistant Staphylococcus aureus ATCC43300 incubated for 18 to 20 hrs; format: functional; settings: time 18-20 hrs
# Escherichia coli [10] = test: Disruption of inner membrane in Escherichia coli ATCC25922 by PI staining based analysis; format: functional, organism-based; settings: time 12.0 min, TDE = time-dependent effect
# [11] = target: T1, Cell division protein FtsZ (Bacillus subtilis); test: Induction of FtsZ polymerization in Bacillus subtilis preincubated for 10 mins followed by GTP addition measured upto 30 mins by absorbance based assay; settings: dose 2.5-10 µg/ml, time 40.0 min
# Staphylococcus aureus [12] = test: Bactericidal activity against Staphylococcus aureus ATCC25923 assessed as log reduction in bacterial growth at 0.125 ug/ml measured for 6 hrs by time-kill assay; format: functional; settings: dose 0.125 µg/ml
# Staphylococcus aureus [13] = test: Induction of morphological change in Staphylococcus aureus ATCC25923 assessed as loss of bacterial membrane integrity at 16 times MIC incubated for 2 hrs by TEM analysis; format: functional, organism-based
# [14] = system: Staphylococcus epidermidis; test: Antibacterial activity against penicillin-resistant Staphylococcus epidermidis clinical isolate assessed as bacterial growth inhibition incubated for 20 hrs by CLSI based broth microdilution method; format: functional
# Staphylococcus aureus [15] = test: Bactericidal activity against Staphylococcus aureus ATCC25923 assessed as log reduction in bacterial growth at 0.25 to 0.5 ug/ml measured for 9 to 12 hrs by time-kill assay; format: functional; settings: dose 0.25-0.5 µg/ml; time 9-12 hrs
smiles,measurement,setting,value
C[n+]1cc(-c2ccccc2)c(/C=C/c2ccc(C(C)(C)C)cc2)cc1-c1ccc(C(C)(C)C)cc1.[I-],Activity,Staphylococcus aureus [1],Active
same,MIC,Staphylococcus aureus [2],0.062 µg/mL
same,MIC,Bacillus subtilis [3],0.125 µg/mL
same,MIC,Escherichia coli [4],4 µg/mL
same,Activity,[5],Active
same,Ratio,Staphylococcus aureus [6],2
same,MBC,Bacillus subtilis [7],0.25 µg/mL
same,Activity,Staphylococcus aureus [8],Dose-Dependent Effect
same,MBC,Staphylococcus aureus [9],0.5 µg/mL
same,Activity,Escherichia coli [10],Tde
same,Activity,[11],Dose-Dependent Effect
same,Activity,Staphylococcus aureus [12],3.059 log10CFU/ml
same,Activity,Staphylococcus aureus [13],Active
same,MIC,[14],0.5 µg/mL
same,Activity,Staphylococcus aureus [15],0 log10CFU/ml
